# Columns and labels:
# Format in all cases: in vivo
# [1] = tested on: corn (Zea mays); assay: Test G Pre-Emergence Protocol; conditions: Zea mays, pre-emergence, 312 h, evaluated after 13 days
# Procedure, shortened: (§1)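 Herbicidal effect was rated 13 days post-application on a scale where 100 equals total damage. Spraying took place the day after sowing, using 15.625, 62.5 or 250 g/ha of compound in a 50:50 acetone/water solution with 0.5% Tween 20.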
# [2] = tested on: barnyardgrass (Echinochloa crus-galli); assay: Test G Pre-Emergence Protocol; conditions: Echinochloa crus-galli, pre-emergence, 312 h, evaluated after 13 days
# Procedure, shortened: as §1
# [3] = tested on: redroot pigweed (Amaranthus retroflexus); assay: Test G Pre-Emergence Protocol; conditions: Amaranthus retroflexus, pre-emergence, 312 h, evaluated after 13 days
# Procedure, shortened: as §1
# [4] = tested on: velvetleaf (Abutilon theophrasti); assay: Test G Pre-Emergence Protocol; conditions: Abutilon theophrasti, pre-emergence, 312 h, evaluated after 13 days
# Procedure, shortened: as §1
# [5] = tested on: ivy-leaved morning glory (Ipomoea hederacea); assay: Test G Pre-Emergence Protocol; conditions: Ipomoea, pre-emergence, 312 h, evaluated after 13 days
# Procedure, shortened: as §1
# [6] = tested on: giant foxtail (Setaria faberi); assay: Test G Pre-Emergence Protocol; conditions: Setaria faberi, pre-emergence, 312 h, evaluated after 13 days
# Procedure, shortened: as §1
# [7] = tested on: corn (Zea mays); assay: Test G Post-Emergence Protocol; conditions: Zea mays, post-emergence, 312 h
# Procedure, shortened: (§2)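 Eight days post-sowing, plants received a spray of test compound (acetone/water 50:50, 0.5% Tween 20) at 15.625, 62.5 or 250 g/ha. Glasshouse regime thereafter: 24/16 °C, 14 h light, 65% humidity. Assessment after 13 days on a 0–100 damage scale.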
# [8] = tested on: barnyardgrass (Echinochloa crus-galli); assay: Test G Post-Emergence Protocol; conditions: Echinochloa crus-galli, post-emergence, 312 h
# Procedure, shortened: as §2
# [9] = tested on: redroot pigweed (Amaranthus retroflexus); assay: Test G Post-Emergence Protocol; conditions: Amaranthus retroflexus, post-emergence, 312 h
# Procedure, shortened: as §2
# [10] = tested on: velvetleaf (Abutilon theophrasti); assay: Test G Post-Emergence Protocol; conditions: Abutilon theophrasti, post-emergence, 312 h
# Procedure, shortened: as §2
# [11] = tested on: ivy-leaved morning glory (Ipomoea hederacea); assay: Test G Post-Emergence Protocol; conditions: Ipomoea, post-emergence, 312 h
# Procedure, shortened: as §2
# [12] = tested on: giant foxtail (Setaria faberi); assay: Test G Post-Emergence Protocol; conditions: Setaria faberi, post-emergence, 312 h
# Procedure, shortened: as §2
structure (smiles),measurement,setting,value
CN1C[C@@H](c2cncc(F)c2)[C@H](C(=O)Nc2cccc(F)c2F)C1=O (racemic) [Compound 1482],plant injury at 15.625 g/ha,"[1]; 15.625 g ai/ha, read-out: Corn damage rating (100=total damage to plant; 0=no damage to plant)",30%
same,plant injury at 62.5 g/ha,"[1]; 62.5 g ai/ha, 100=total damage to plant, 0=no damage to plant, read-out: plant damage rating, Corn",40%
same,plant injury at 250 g/ha,"[1]; 250 g ai/ha, read-out: Corn damage rating (100=total damage to plant; 0=no damage to plant)",30%
same,pest or weed control at 15.625 g/ha,"[2]; 15.625 g ai/ha, read-out: Barnyard grass damage rating (100=total damage to plant; 0=no damage to plant)",10%
same,pest or weed control at 62.5 g/ha,"[2]; 62.5 g ai/ha, 100=total damage to plant, 0=no damage to plant, read-out: plant damage rating, Barnyardgrass",30%
same,pest or weed control at 250 g/ha,"[2]; 250 g ai/ha, read-out: Barnyardgrass damage rating (100=total damage to plant; 0=no damage to plant)",80%
same,pest or weed control at 15.625 g/ha,"[3]; 15.625 g ai/ha, read-out: Pigweed, Redroot damage rating (100=total damage to plant; 0=no damage to plant)",0%
same,pest or weed control at 62.5 g/ha,"[3]; 62.5 g ai/ha, 100=total damage to plant, 0=no damage to plant, read-out: plant damage rating, Pigweed, Redroot",0%
same,pest or weed control at 250 g/ha,"[3]; 250 g ai/ha, read-out: Pigweed, Redroot damage rating (100=total damage to plant; 0=no damage to plant)",10%
same,pest or weed control at 15.625 g/ha,"[4]; 15.625 g ai/ha, read-out: Velvetleaf damage rating (100=total damage to plant; 0=no damage to plant)",0%
same,pest or weed control at 62.5 g/ha,"[4]; 62.5 g ai/ha, 100=total damage to plant, 0=no damage to plant, read-out: plant damage rating, Velvetleaf",0%
same,pest or weed control at 250 g/ha,"[4]; 250 g ai/ha, read-out: Velvetleaf damage rating (100=total damage to plant; 0=no damage to plant)",10%
same,pest or weed control at 15.625 g/ha,"[5]; 15.625 g ai/ha, read-out: Morning-glory, Ivy-leaved damage rating (100=total damage to plant; 0=no damage to plant)",0%
same,pest or weed control at 62.5 g/ha,"[5]; 62.5 g ai/ha, 100=total damage to plant, 0=no damage to plant, read-out: plant damage rating, Morningglory, Ivy-leaved",0%
same,pest or weed control at 250 g/ha,"[5]; 250 g ai/ha, read-out: Morningglory, Ivy-leaved damage rating (100=total damage to plant; 0=no damage to plant)",10%
same,pest or weed control at 15.625 g/ha,"[6]; 15.625 g ai/ha, read-out: Foxtail, Giant damage rating (100=total damage to plant; 0=no damage to plant)",20%
same,pest or weed control at 62.5 g/ha,"[6]; 62.5 g ai/ha, 100=total damage to plant, 0=no damage to plant, read-out: plant damage rating, Foxtail, Giant",60%
same,pest or weed control at 250 g/ha,"[6]; 250 g ai/ha, read-out: Foxtail, Giant damage rating (100=total damage to plant; 0=no damage to plant)",90%
same,plant injury at 15.625 g/ha,"[7]; 15.625 g ai/ha, evaluated after 13 days (100=total damage to plant; 0=no damage to plant), read-out: Corn damage rating",20%
same,plant injury at 62.5 g/ha,"[7]; 62.5 g ai/ha, evaluated after 13 days, read-out: Corn damage rating (100=total damage to plant; 0=no damage to plant)",30%
same,plant injury at 250 g/ha,"[7]; 250 g ai/ha, evaluated after 13 days, read-out: damage to plant, Corn (100=total damage to plant; 0=no damage to plant)",30%
same,pest or weed control at 15.625 g/ha,"[8]; 15.625 g ai/ha, evaluated after 13 days (100=total damage to plant; 0=no damage to plant), read-out: Barnyardgrass damage rating",30%
same,pest or weed control at 62.5 g/ha,"[8]; 62.5 g ai/ha, evaluated after 13 days, read-out: Barnyardgrass damage rating (100=total damage to plant; 0=no damage to plant)",30%
same,pest or weed control at 250 g/ha,"[8]; 250 g ai/ha, evaluated after 13 days, read-out: damage to plant, Barnyardgrass (100=total damage to plant; 0=no damage to plant)",60%
same,pest or weed control at 15.625 g/ha,"[9]; 15.625 g ai/ha, evaluated after 13 days (100=total damage to plant; 0=no damage to plant), read-out: Pigweed, Redroot damage rating",0%
same,pest or weed control at 62.5 g/ha,"[9]; 62.5 g ai/ha, evaluated after 13 days, read-out: Pigweed, Redroot damage rating (100=total damage to plant; 0=no damage to plant)",0%
same,pest or weed control at 250 g/ha,"[9]; 250 g ai/ha, evaluated after 13 days, read-out: damage to plant, Pigweed, Redroot (100=total damage to plant; 0=no damage to plant)",0%
same,pest or weed control at 15.625 g/ha,"[10]; 15.625 g ai/ha, evaluated after 13 days (100=total damage to plant; 0=no damage to plant), read-out: Velvetleaf damage rating",0%
same,pest or weed control at 62.5 g/ha,"[10]; 62.5 g ai/ha, evaluated after 13 days, read-out: Velvetleaf damage rating (100=total damage to plant; 0=no damage to plant)",0%
same,pest or weed control at 250 g/ha,"[10]; 250 g ai/ha, evaluated after 13 days, read-out: damage to plant, Velvetleaf (100=total damage to plant; 0=no damage to plant)",10%
same,pest or weed control at 15.625 g/ha,"[11]; 15.625 g ai/ha, evaluated after 13 days (100=total damage to plant; 0=no damage to plant), read-out: Morningglory, Ivy-leaved damage rating",0%
same,pest or weed control at 62.5 g/ha,"[11]; 62.5 g ai/ha, evaluated after 13 days, read-out: Morningglory, Ivy-leaved damage rating (100=total damage to plant; 0=no damage to plant)",0%
same,pest or weed control at 250 g/ha,"[11]; 250 g ai/ha, evaluated after 13 days, read-out: damage to plant, Morningglory, Ivy-leaved (100=total damage to plant; 0=no damage to plant)",0%
same,pest or weed control at 15.625 g/ha,"[12]; 15.625 g ai/ha, evaluated after 13 days (100=total damage to plant; 0=no damage to plant), read-out: Foxtail, Giant damage rating",30%
same,pest or weed control at 62.5 g/ha,"[12]; 62.5 g ai/ha, evaluated after 13 days, read-out: Foxtail, Giant damage rating (100=total damage to plant; 0=no damage to plant)",30%
same,pest or weed control at 250 g/ha,"[12]; 250 g ai/ha, evaluated after 13 days, read-out: damage to plant, Foxtail, Giant (100=total damage to plant; 0=no damage to plant)",60%

# Source: patent US12077503B2, “Substituted cyclic amides and their use as herbicides” (FMC CORPORATION, priority 2015, dated 2024)
